Results as given in PubChem BioAssay (NCI).
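GI50 = concentration required for 50% inhibition of growth. TGI is the concentration that stops growth completely.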

How the values were obtained:
Experiment in all cases: NCI-60 cell line screen, 384-well format
A498 renal = system: A498 renal
A549 NSCLC = system: A549 NSCLC
ACHN renal = system: ACHN renal
BT-549 breast = system: BT-549 breast
CAKI-1 renal = system: CAKI-1 renal
COLO 205 colon = system: COLO 205 colon
DU-145 prostate = system: DU-145 prostate
EKVX NSCLC = system: EKVX NSCLC
HCC-2998 colon = system: HCC-2998 colon
HCT-116 colon = system: HCT-116 colon
HCT-15 colon = system: HCT-15 colon
HL-60(TB) leukemia = system: HL-60(TB) leukemia
HOP-62 NSCLC = system: HOP-62 NSCLC
HOP-92 NSCLC = system: HOP-92 NSCLC
HS 578T breast = system: HS 578T breast
HT29 colon = system: HT29 colon
IGROV1 ovarian = system: IGROV1 ovarian
KM12 colon = system: KM12 colon
LOX IMVI melanoma = system: LOX IMVI melanoma
M14 melanoma = system: M14 melanoma
MALME-3M melanoma = system: MALME-3M melanoma
MCF7 breast = system: MCF7 breast
MDA-MB-231 breast = system: MDA-MB-231 breast
MDA-MB-435 melanoma = system: MDA-MB-435 melanoma
MDA-MB-468 breast = system: MDA-MB-468 breast
MOLT-4 leukemia = system: MOLT-4 leukemia
NCI-H226 lung = system: NCI-H226 lung
NCI-H23 lung = system: NCI-H23 lung
NCI-H322M lung = system: NCI-H322M lung
NCI-H460 NSCLC = system: NCI-H460 NSCLC
NCI-H522 lung = system: NCI-H522 lung
NCI/ADR-RES ovarian = system: NCI/ADR-RES ovarian
OVCAR-3 ovarian = system: OVCAR-3 ovarian
OVCAR-4 ovarian = system: OVCAR-4 ovarian
OVCAR-5 ovarian = system: OVCAR-5 ovarian
OVCAR-8 ovarian = system: OVCAR-8 ovarian
PC-3 prostate = system: PC-3 prostate
RPMI-8226 leukemia = system: RPMI-8226 leukemia
RXF 393 renal = system: RXF 393 renal
SF-268 CNS = system: SF-268 CNS
SF-295 CNS = system: SF-295 CNS
SF-539 CNS = system: SF-539 CNS
SK-MEL-28 melanoma = system: SK-MEL-28 melanoma
SK-MEL-5 melanoma = system: SK-MEL-5 melanoma
SK-OV-3 ovarian = system: SK-OV-3 ovarian
SN12C renal = system: SN12C renal
SNB-19 CNS = system: SNB-19 CNS
SNB-75 CNS = system: SNB-75 CNS
SR leukemia = system: SR leukemia
T-47D breast = system: T-47D breast
TK-10 renal = system: TK-10 renal
U251 glioblastoma = system: U251 glioblastoma
UACC-257 melanoma = system: UACC-257 melanoma
UACC-62 melanoma = system: UACC-62 melanoma

SMILES: CCOc1ccccc1N=Nc1c(C)[nH]n(-c2nc(-c3ccccc3)cs2)c1=O
- GI50 (A498 renal): > 100 µM
- TGI (A498 renal): > 100 µM
- GI50 (A549 NSCLC): > 100 µM
- TGI (A549 NSCLC): > 100 µM
- GI50 (ACHN renal): > 100 µM
- TGI (ACHN renal): > 100 µM
- GI50 (BT-549 breast): > 100 µM
- TGI (BT-549 breast): > 100 µM
- GI50 (CAKI-1 renal): > 100 µM
- TGI (CAKI-1 renal): > 100 µM
- GI50 (COLO 205 colon): > 100 µM
- TGI (COLO 205 colon): > 100 µM
- GI50 (DU-145 prostate): > 100 µM
- TGI (DU-145 prostate): > 100 µM
- GI50 (EKVX NSCLC): > 100 µM
- TGI (EKVX NSCLC): > 100 µM
- GI50 (HCC-2998 colon): > 100 µM
- TGI (HCC-2998 colon): > 100 µM
- GI50 (HCT-116 colon): > 100 µM
- TGI (HCT-116 colon): > 100 µM
- GI50 (HCT-15 colon): > 100 µM
- TGI (HCT-15 colon): > 100 µM
- GI50 (HL-60(TB) leukemia): 21.4 µM
- TGI (HL-60(TB) leukemia): > 100 µM
- GI50 (HOP-62 NSCLC): > 100 µM
- TGI (HOP-62 NSCLC): > 100 µM
- GI50 (HOP-92 NSCLC): > 100 µM
- TGI (HOP-92 NSCLC): > 100 µM
- GI50 (HS 578T breast): > 100 µM
- TGI (HS 578T breast): > 100 µM
- GI50 (HT29 colon): > 100 µM
- TGI (HT29 colon): > 100 µM
- GI50 (IGROV1 ovarian): > 100 µM
- TGI (IGROV1 ovarian): > 100 µM
- GI50 (KM12 colon): > 100 µM
- TGI (KM12 colon): > 100 µM
- GI50 (LOX IMVI melanoma): > 100 µM
- TGI (LOX IMVI melanoma): > 100 µM
- GI50 (M14 melanoma): > 100 µM
- TGI (M14 melanoma): > 100 µM
- GI50 (MALME-3M melanoma): > 100 µM
- TGI (MALME-3M melanoma): > 100 µM
- GI50 (MCF7 breast): > 100 µM
- TGI (MCF7 breast): > 100 µM
- GI50 (MDA-MB-231 breast): > 100 µM
- TGI (MDA-MB-231 breast): > 100 µM
- GI50 (MDA-MB-435 melanoma): > 100 µM
- TGI (MDA-MB-435 melanoma): > 100 µM
- GI50 (MDA-MB-468 breast): 1.47 µM
- TGI (MDA-MB-468 breast): 9.75 µM
- GI50 (MOLT-4 leukemia): 98.9 µM
- TGI (MOLT-4 leukemia): > 100 µM
- GI50 (NCI-H226 lung): > 100 µM
- TGI (NCI-H226 lung): > 100 µM
- GI50 (NCI-H23 lung): > 100 µM
- TGI (NCI-H23 lung): > 100 µM
- GI50 (NCI-H322M lung): > 100 µM
- TGI (NCI-H322M lung): > 100 µM
- GI50 (NCI-H460 NSCLC): > 100 µM
- TGI (NCI-H460 NSCLC): > 100 µM
- GI50 (NCI-H522 lung): > 100 µM
- TGI (NCI-H522 lung): > 100 µM
- GI50 (NCI/ADR-RES ovarian): > 100 µM
- TGI (NCI/ADR-RES ovarian): > 100 µM
- GI50 (OVCAR-3 ovarian): > 100 µM
- TGI (OVCAR-3 ovarian): > 100 µM
- GI50 (OVCAR-4 ovarian): > 100 µM
- TGI (OVCAR-4 ovarian): > 100 µM
- GI50 (OVCAR-5 ovarian): > 100 µM
- TGI (OVCAR-5 ovarian): > 100 µM
- GI50 (OVCAR-8 ovarian): > 100 µM
- TGI (OVCAR-8 ovarian): > 100 µM
- GI50 (PC-3 prostate): > 100 µM
- TGI (PC-3 prostate): > 100 µM
- GI50 (RPMI-8226 leukemia): 53.9 µM
- TGI (RPMI-8226 leukemia): > 100 µM
- GI50 (RXF 393 renal): > 100 µM
- TGI (RXF 393 renal): > 100 µM
- GI50 (SF-268 CNS): > 100 µM
- TGI (SF-268 CNS): > 100 µM
- GI50 (SF-295 CNS): > 100 µM
- TGI (SF-295 CNS): > 100 µM
- GI50 (SF-539 CNS): > 100 µM
- TGI (SF-539 CNS): > 100 µM
- GI50 (SK-MEL-28 melanoma): > 100 µM
- TGI (SK-MEL-28 melanoma): > 100 µM
- GI50 (SK-MEL-5 melanoma): > 100 µM
- TGI (SK-MEL-5 melanoma): > 100 µM
- GI50 (SK-OV-3 ovarian): > 100 µM
- TGI (SK-OV-3 ovarian): > 100 µM
- GI50 (SN12C renal): > 100 µM
- TGI (SN12C renal): > 100 µM
- GI50 (SNB-19 CNS): > 100 µM
- TGI (SNB-19 CNS): > 100 µM
- GI50 (SNB-75 CNS): > 100 µM
- TGI (SNB-75 CNS): > 100 µM
- GI50 (SR leukemia): > 100 µM
- TGI (SR leukemia): > 100 µM
- GI50 (T-47D breast): > 100 µM
- TGI (T-47D breast): > 100 µM
- GI50 (TK-10 renal): > 100 µM
- TGI (TK-10 renal): > 100 µM
- GI50 (U251 glioblastoma): > 100 µM
- TGI (U251 glioblastoma): > 100 µM
- GI50 (UACC-257 melanoma): > 100 µM
- TGI (UACC-257 melanoma): > 100 µM
- GI50 (UACC-62 melanoma): > 100 µM
- TGI (UACC-62 melanoma): > 100 µM
